Measured values as given in patent US10800792B2, “Inhibitors of Bruton's tyrosine kinase and method of their use” (JANSSEN PHARMACEUTICA NV, priority 2015, dated 2020).

Molecular target: unphosphorylated-BTK kinase domain (UP-BTK), GST-tagged human BTK (389-659aa) (Homo sapiens (Human), UniProt Q06187)
Assay: BTK kinase Lanthascreen binding assay
Conditions: unphosphorylated-BTK kinase domain, 50 nM Tracer 236, 60 minutes, pIC50 = negative log of the IC50 in molar; for IC50: read-out: BTK_I_binding pIC50 (converted)
How it was run: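 A fluorescent tracer is bound to unphosphorylated BTK; test compound is added to compete it off; the Lanthascreen signal is read and IC50 is fitted, then reported as its negative log in molar.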

Sequence of unphosphorylated-BTK kinase domain (UP-BTK), GST-tagged human BTK (389-659aa) (Q06187 389-659): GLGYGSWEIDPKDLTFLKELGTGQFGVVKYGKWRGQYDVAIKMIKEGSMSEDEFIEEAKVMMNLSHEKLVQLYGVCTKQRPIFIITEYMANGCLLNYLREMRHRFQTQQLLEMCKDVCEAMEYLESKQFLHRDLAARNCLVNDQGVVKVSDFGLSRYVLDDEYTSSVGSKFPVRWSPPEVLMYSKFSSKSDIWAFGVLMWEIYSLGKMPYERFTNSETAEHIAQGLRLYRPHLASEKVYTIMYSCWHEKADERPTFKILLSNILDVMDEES

BTK_I_binding pIC50	IC50	SMILES
6.9		Cc1cc(Oc2ccccc2)ccc1N1C(=O)Nc2c(C(=O)N[C@@H]3CCCN(C(=O)[C@@H]4CCN4)C3)sc3nccc1c23 [Example 386, N—((R)-1-((S)-Azetidine-2-carbonyl)piperidin-3-yl)-5-(2-methyl-4-phenoxyphenyl)-4-oxo-4,5-dihydro-3H-1-thia-3,5,8-triazaacenaphthylene-2-carboxamide]
7.1		CNC/C=C(\F)C(=O)N1CCC[C@@H](NC(=O)c2sc3nccc4c3c2NC(=O)N4c2ccc(Oc3ccccc3)cc2C)C1 [Example 388, (R,Z)—N-(1-(2-Fluoro-4-(methylamino)but-2-enoyl)piperidin-3-yl)-5-(2-methyl-4-phenoxyphenyl)-4-oxo-4,5-dihydro-3H-1-thia-3,5,8-triazaacenaphthylene-2-carboxamide]
7.0		Cc1cc(Oc2ccccc2)ccc1N1C(=O)Nc2c(C(=O)N[C@@H]3CCCN(C(=O)CN4CCCC4)C3)sc3nccc1c23 [Example 389, (R)-5-(2-Methyl-4-phenoxyphenyl)-4-oxo-N-(1-(2-(pyrrolidin-1-yl)acetyl)piperidin-3-yl)-4,5-dihydro-3H-1-thia-3,5,8-triazaacenaphthylene-2-carboxamide]
6.9		C=CC(=O)N1CCC[C@@H](NCc2sc3nccc4c3c2NC(=O)N4c2ccc(Oc3ccccc3)cc2C)C1 [Example 390, (R)-2-(((1-Acryloylpiperidin-3-yl)amino)methyl)-5-(2-methyl-4-phenoxyphenyl)-3H-1-thia-3,5,8-triazaacenaphthylen-4(5H)-one]
7.2		CNCC(=O)N1CC[C@@H](NC(=O)c2sc3nccc4c3c2NC(=O)N4c2ccc(Oc3ccccc3)cc2C)C1 [Example 391, (R)-5-(2-Methyl-4-phenoxyphenyl)-N-(1-(2-(methylamino)acetyl)pyrrolidin-3-yl)-4-oxo-4,5-dihydro-3H-1-thia-3,5,8-triazaacenaphthylene-2-carboxamide]
7.4		Cc1cc(Oc2ccccc2)ccc1N1C(=O)Nc2c(C(=O)N[C@@H]3CCN(C(=O)CN)C3)sc3nccc1c23 [Example 392, (R)—N-(1-(2-Aminoacetyl)pyrrolidin-3-yl)-5-(2-methyl-4-phenoxyphenyl)-4-oxo-4,5-dihydro-3H-1-thia-3,5,8-triazaacenaphthylene-2-carboxamide]
6.8		Cc1cc(Oc2ccccc2)ccc1N1C(=O)Nc2c(C(=O)N[C@@H]3CCCN(C(=O)CN4CCCCC4)C3)sc3nccc1c23 [Example 393, (R)-5-(2-Methyl-4-phenoxyphenyl)-4-oxo-N-(1-(2-(piperidin-1-yl)acetyl)piperidin-3-yl)-4,5-dihydro-3H-1-thia-3,5,8-triazaacenaphthylene-2-carboxamide]
6.8		Cc1cc(Oc2ccccc2)ccc1N1C(=O)Nc2c(C(=O)N[C@@H]3CCCN(C(=O)CN4CCOCC4)C3)sc3nccc1c23 [Example 394, (R)-5-(2-Methyl-4-phenoxyphenyl)-N-(1-(2-morpholinoacetyl)piperidin-3-yl)-4-oxo-4,5-dihydro-3H-1-thia-3,5,8-triazaacenaphthylene-2-carboxamide]
8.0		Cc1cc(Oc2ccccc2)ccc1N1C(=O)Nc2c(C(=O)N[C@@H]3CCN(C(=O)CCl)C3)sc3nccc1c23 [Example 395, (R)—N-(1-(2-Chloroacetyl)pyrrolidin-3-yl)-5-(2-methyl-4-phenoxyphenyl)-4-oxo-4,5-dihydro-3H-1-thia-3,5,8-triazaacenaphthylene-2-carboxamide]
7.8		Cc1cc(Oc2ccccc2)ccc1N1C(=O)Nc2c(C(=O)N[C@@H]3CCCN(C(=O)CCl)C3)sc3nccc1c23 [Example 396, (R)—N-(1-(2-Chloroacetyl)piperidin-3-yl)-5-(2-methyl-4-phenoxyphenyl)-4-oxo-4,5-dihydro-3H-1-thia-3,5,8-triazaacenaphthylene-2-carboxamide]
6.4		C=CC(=O)N1CCC[C@@H](NC(=O)c2sc3nccc4c3c2NC(=O)N4c2ccc(-c3cccs3)cc2)C1 [Example 397, (R)—N-(1-Acryloylpiperidin-3-yl)-4-oxo-5-(4-(thiophen-2-yl)phenyl)-4,5-dihydro-3H-1-thia-3,5,8-triazaacenaphthylene-2-carboxamide]
7.5		CC(C)Oc1ccc(N2C(=O)Nc3c(C(=O)N[C@@H]4CCCN(C(=O)/C(C#N)=C/C5CC5)C4)sc4nccc2c34)cc1 [Example 399, (R,E)-N-(1-(2-Cyano-3-cyclopropylacryloyl)piperidin-3-yl)-5-(4-isopropoxyphenyl)-4-oxo-4,5-dihydro-3H-1-thia-3,5,8-triazaacenaphthylene-2-carboxamide]
6.9		C=CC(=O)N1CCC[C@@H](NC(=O)c2sc3nccc4c3c2NC(=O)N4c2ccc(OC(C)C)cc2)C1 [Example 400, (R)—N-(1-Acryloylpiperidin-3-yl)-5-(4-isopropoxyphenyl)-4-oxo-4,5-dihydro-3H-1-thia-3,5,8-triazaacenaphthylene-2-carboxamide]
6.5		C/C(=C\C1CC1)C(=O)N1CCC[C@@H](NC(=O)c2sc3nccc4c3c2NC(=O)N4c2ccc(Oc3ccccc3)cc2C)C1 [Example 401, (R,E)-N-(1-(3-Cyclopropyl-2-methylacryloyl)piperidin-3-yl)-5-(2-methyl-4-phenoxyphenyl)-4-oxo-4,5-dihydro-3H-1-thia-3,5,8-triazaacenaphthylene-2-carboxamide]
6.4		Cc1cc(Oc2ccccc2)ccc1N1C(=O)Nc2c(C(=O)N[C@@H]3CCCN(C(=O)/C=C/CN4CCOCC4)C3)sc3nccc1c23 [Example 403, (R,E)-5-(2-Methyl-4-phenoxyphenyl)-N-(1-(4-morpholinobut-2-enoyl)piperidin-3-yl)-4-oxo-4,5-dihydro-3H-1-thia-3,5,8-triazaacenaphthylene-2-carboxamide]
6.1		C=CC(=O)N1CCC[C@@H](NC(=O)c2sc3nccc4c3c2NC(=O)N4c2ccc3sccc3c2)C1 [Example 404, (R)—N-(1-Acryloylpiperidin-3-yl)-5-(benzo[b]thiophen-5-yl)-4-oxo-4,5-dihydro-3H-1-thia-3,5,8-triazaacenaphthylene-2-carboxamide]
	3.16 µM	CC(C)Oc1ccc(N2C(=O)Nc3c(C(=O)N[C@@H]4CCCNC4)sc4nccc2c34)cc1 [Example 405, (R)-5-(4-Isopropoxyphenyl)-4-oxo-N-(piperidin-3-yl)-4,5-dihydro-3H-1-thia-3,5,8-triazaacenaphthylene-2-carboxamide]
5.2		CCC(=O)N1CCC[C@@H](NC(=O)c2sc3nccc4c3c2NC(=O)N4c2ccc(OC(C)C)cc2)C1 [Example 406, (R)-5-(4-Isopropoxyphenyl)-4-oxo-N-(1-propionylpiperidin-3-yl)-4,5-dihydro-3H-1-thia-3,5,8-triazaacenaphthylene-2-carboxamide]
5.1		O=C(N[C@@H]1CCCNC1)c1sc2nccc3c2c1NC(=O)N3c1ccc(-c2cccs2)cc1 [Example 407, (R)-4-Oxo-N-(piperidin-3-yl)-5-(4-(thiophen-2-yl)phenyl)-4,5-dihydro-3H-1-thia-3,5,8-triazaacenaphthylene-2-carboxamide]
5.1		C=CC(=O)N1CCC[C@@H](NC(=O)c2sc3nccc4c3c2NC(=O)N4Cc2ccc(Oc3ccccc3)cc2)C1 [Example 408, (R)—N-(1-Acryloylpiperidin-3-yl)-4-oxo-5-(4-phenoxybenzyl)-4,5-dihydro-3H-1-thia-3,5,8-triazaacenaphthylene-2-carboxamide]
5.0		CN1CC[C@@H](NC(=O)c2sc3nccc4c3c2NC(=O)N4Cc2ccc(Oc3ccccc3)cc2)C1 [Example 409, (R)—N-(1-Methylpyrrolidin-3-yl)-4-oxo-5-(4-phenoxybenzyl)-4,5-dihydro-3H-1-thia-3,5,8-triazaacenaphthylene-2-carboxamide]
5.0		O=C(N[C@@H]1CCCNC1)c1sc2nccc3c2c1NC(=O)N3c1ccc2sccc2c1 [Example 410, (R)-5-(Benzo[b]thiophen-5-yl)-4-oxo-N-(piperidin-3-yl)-4,5-dihydro-3H-1-thia-3,5,8-triazaacenaphthylene-2-carboxamide]
<5		CN1CCC[C@@H](NC(=O)c2sc3nccc4c3c2NC(=O)N4Cc2ccc(Oc3ccccc3)cc2)C1 [Example 411, (R)—N-(1-Methylpiperidin-3-yl)-4-oxo-5-(4-phenoxybenzyl)-4,5-dihydro-3H-1-thia-3,5,8-triazaacenaphthylene-2-carboxamide]
<5		O=C(N[C@@H]1CCCNC1)c1sc2nccc3c2c1NC(=O)N3Cc1ccc(Oc2ccccc2)cc1 [Example 412, (R)-4-Oxo-5-(4-phenoxybenzyl)-N-(piperidin-3-yl)-4,5-dihydro-3H-1-thia-3,5,8-triazaacenaphthylene-2-carboxamide]
	2.51 µM	Cc1cc(OC(F)(F)F)ccc1N1C(=O)Nc2c(C(=O)N[C@@H]3CCCNC3)sc3nccc1c23 [Example 413, (R)-5-(2-Methyl-4-(trifluoromethoxy)phenyl)-4-oxo-N-(piperidin-3-yl)-4,5-dihydro-3H-1-thia-3,5,8-triazaacenaphthylene-2-carboxamide]
7.4		C=CC(=O)N1CCC[C@@H](NC(=O)c2sc3nccc4c3c2NC(=O)N4c2ccc(OC(F)(F)F)cc2C)C1 [Example 414, (R)—N-(1-Acryloylpiperidin-3-yl)-5-(2-methyl-4-(trifluoromethoxy)phenyl)-4-oxo-4,5-dihydro-3H-1-thia-3,5,8-triazaacenaphthylene-2-carboxamide]
	6.31 µM	O=C(N[C@@H]1CCCNC1)c1sc2nccc3c2c1NC(=O)N3c1ccc(OC(F)(F)F)cc1 [Example 415, (R)-4-Oxo-N-(piperidin-3-yl)-5-(4-(trifluoromethoxy)phenyl)-4,5-dihydro-3H-1-thia-3,5,8-triazaacenaphthylene-2-carboxamide]
